Measurements as given in the NIST ThermoML archive (doi:10.1021/je049762q).

Assay: molar heat capacity at constant pressure
Details: 101.33 kPa, Crystal 3

Clc1ccc(Cl)cc1 [1,4-dichlorobenzene]
Details	molar heat capacity at constant pressure [J/K/mol]
5.11 K	0.29
6.43 K	0.42
7.21 K	0.83
7.89 K	1.18
9.58 K	2.1
10 K	2.33
11.66 K	3.22
13.08 K	4.5
14.5 K	6.12
15 K	6.7
15.94 K	7.81
18.49 K	10.86
19 K	11.19
20 K	12.69
20.21 K	12.96
21.65 K	14.62
22.92 K	16.12
24.05 K	17.45
25 K	18.52
25.09 K	18.62
26.05 K	19.66
28.53 K	21.78
30 K	23.27
32.77 K	26.1
34.99 K	28.16
36.99 K	29.91
38.82 K	31.33
40 K	32.27
42.09 K	33.94
44.35 K	35.66
46.46 K	37.19
48.44 K	38.2
50 K	39.36
52.09 K	40.68
53.8 K	41.66
55.44 K	42.56
57.02 K	43.48
58.55 K	44.32
60 K	45.13
60.03 K	45.14
63.79 K	47.24
66.94 K	48.83
69.94 K	50.35
70 K	50.38
72.81 K	51.62
80 K	55.34
82.41 K	56.53
85.29 K	57.82
88.14 K	59.02
90 K	59.86
91.01 K	60.3
93.9 K	61.52
96.8 K	62.72
99.71 K	63.94
100 K	64.06
102.62 K	65.39
103.2 K	65.58
105.55 K	66.59
107.33 K	67.31
108.49 K	67.79
110 K	68.42
111.35 K	68.99
111.43 K	69.01
114.39 K	70.21
115.28 K	70.59
117.35 K	71.41
119.12 K	72.17
120 K	72.49
120.32 K	72.62
122.89 K	73.69
123.3 K	73.82
126.28 K	75.05
126.6 K	75.16
129.27 K	76.26
130 K	76.54
130.24 K	76.63
132.26 K	77.49
133.83 K	78.06
135.26 K	78.7
137.36 K	79.47
138.27 K	79.99
140 K	80.56
140.85 K	80.87
141.27 K	81.11
144.27 K	82.33
147.28 K	83.54
147.69 K	83.58
150 K	84.62
150.29 K	84.72
151.05 K	84.88
153.31 K	85.92
156.33 K	87.11
159.35 K	88.32
160 K	88.57
162.38 K	89.5
165.4 K	90.68
168.43 K	91.85
170 K	92.45
171.47 K	93.01
177.53 K	95.43
180 K	96.42
180.53 K	96.63
183.51 K	97.84
186.47 K	98.95
188.91 K	99.81
189.41 K	100.08
190 K	100.33
191.9 K	101.04
192.33 K	101.32
